Patent EP1370276B1, “INTERCELLULAR COMMUNICATION FACILITATING COMPOUNDS AND THEIR MEDICAL USE” (Zealand Pharma A/S, priority 2001, dated 2002)
Where a SMILES comes first, the peptide text is derived from it. [ ]: non-standard residue; d: D form. The star is where a group is joined. dTyr(3,5-I2) = N[C@H](Cc1cc(I)c(O)c(I)c1)C(=O)O; Dnp = O=[N+]([O-])c1ccc(*)c([N+](=O)[O-])c1; X1 = [N-]=[N+]=Nc1cc(O)c(C(=O)*)cc1I; Hyp = O=C(O)[C@@H]1C[C@@H](O)CN1; dHyp = O=C(O)[C@H]1C[C@H](O)CN1; Sar = CNCC(=O)O

What was measured:
[1] = test system: calcium-induced arrythmias; assay: Calcium-induced arrhythmia model in mice (time to 2nd degree AV-block); format: in vivo; design: CaCl2 mice Score: scale not given here; conditions: for CaCl2 mice Score / CaCl2 mice In vivo, %: calcium chloride induced arrythmia model; for CaCl2 mice Score: no key for the score; for In vivo activity: maximal effect, increase in time until 2nd degree AV-block relative to vehicle, i.v.
Description: The antiarrhythmic effects of compounds of this invention were tested in an in vivo model of calcium-induced arrythmias according to the model of Lynch et al. ^[37]. […]. Commercial solutions of hypnorm and midazolam were diluted 1:1 in distilled water and one part diluted Hypnorm® is mixed with one part diluted midazolam.
The anaesthesia was induced by s.c. administration in a dose of […]. An i.v. cannula was inserted into the tail vein. The lead II ECG signal was recorded continuously by positioning of a stainless steel ECG electrodes on the right forelimb and on the left hind limb. The ground electrode was placed on the right hind limb. The signal was amplified (x 5.000-10.000) and filtered (0.1-150 Hz) via a Hugo Sachs Electronic model 689 ECG module. The analogue signal was digitised via a 12 bit data acquisition board (Data Translation model DT321) and sampled at 1000 Hz using the Notocord HEM 3.1 software for Windows NT. After a 10-min equilibration period, the test sample of drug was injected into the tail vein. Mice pre-treated with vehicle were tested as a measure of the control level in untreated animals. The injection volume was 100 µl in all experiments. Infusion of CaCl2 (30 mg/ml, 0.1 ml/min ≈ 100 mg/kg/min (calciumchlorid-2-hydrat, Riedel-de Haën, Germany)) was started 3 min after i.v. administration of drug or vehicle. The time lag to onset of 2nd degree AV-block was determined as the time from the start of CaCl2 infusion until the first arrhythmic event occured. An event of 2nd degree AV-block was defined as intermittent failure of the AV conduction characterised by a P-wave without the concomitant QRS complex.
Responses were expressed relative to the time until 2nd degree AV-block occurred in vehicle treated mice.

CHO cells = assay: In situ binding of [125I]AAP10 on intact CHO cells; conditions: overnight at 4° C
Description: CHO cells are seeded in 24-multi well dishes in a density of 7,900 cells/cm^2 (∼ 15,000 cells/well) and grown for 3 Days In Vitro (DIV) in 1 ml/well of F-12K Nutrient Mixture supplemented with 10% Foetal Calf Serum (FCS) and 1000 units penicillin/1000 µg streptomycin (pen/strep) in an atmosphere of 5% CO2 and 100% humidity at 37° C. The cell density has at that time increased to 295,000 cells/cm^2 (152 pgprot/cell ∼ 85 µgprot/well).
On the day of analysis cells are removed from the incubator and each well is washed twice with, depending on the experiment, either 2 ml pre-warmed (37 °C) or ice-cold (0 °C) D-PBS to remove serum. It is important to keep the period to a minimum during which cells are left without physiological solutions to avoid that they dry out during washing procedures. The cold washed cells are used directly for binding assays while the warm washed cells are used for experiments with glucose and oxygen deprivation.
The in situ binding is performed by a modified protocol based on the description by Koenig. […] Cells incubate overnight at 4° C to reach equilibrium. Each well, one at the time, is then rinsed rapidly with 2 x 1 ml D-PBS and left to dry.
0.25 ml of 0.5 % Triton-X-100 (v/v) is added to each well and cells left for at least 1 h to solubilize. The extract is transferred to counting vials, the wells rinsed with 0.25 ml water and the rinse extract added to the corresponding vials. The vials are counted in a γ-counter. Table 3. In situ binding, IC50 (nM).

[2] = test system: cAMP formation in CHO cells; assay: Inhibition of forskoline stimulated cAMP formation in CHO cells; format: cell-based; conditions: 10 µM forskoline, 20 min, cells pre-treated with glucose and oxygen deprivation
Description: CHO cells are seeded in 96-well microtiter plates in a density of 6,000 cells/cm^2 (∼ 2,000 cells/well) and grown for 4 days in vitro in 200 µl/well of growth media as described in the previous section.
On the day of analysis cells are removed from the incubator and washed twice with 200 µl pre-warmed (37°C) D-PBS (pH 7.2) to remove serum. Cells are incubated for 10 min in glucose free D-PBS and an N2-atmosphere as described in the previous section.
CHO cells are incubated at 37° C in D-PBS (pH 7.2) containing 6 mM glucose, 2.0 mM IBMX (phospodiesterase blocker), 10 µM forskoline (stimulates cAMP formation) and increasing concentrations of test peptide. The reaction is stopped after 20 min by addition of 20 µl 0.5 M HCl and left for at least 20 min at room temperature.
The content of cAMP is analysed by mixing 20 µl of the acid cell extract into FlashPlate™ wells (NEN assay kit SMP001) containing 180 µl [^12SI]cAMP tracer solution. FlashPlates™ are incubated overnight at 4° C and plate bound radioactivity counted in TopCount (Packard Instrument). Data are calculated as described in the previous section.

[3] = molecular target: murine heart tissue preparations; assay: Displacement of [125I]AAP10 from murine heart tissue preparations; format: binding, mice; conditions: displacement of 0.8 nM [125I]AAP10, filtrate; read-out: Filtrate IC50
Description: Hearts are excised from mice (Balb/cJ, 20 g), rinsed twice in ice-cold (0°C) 0.32 M sucrose and homogenized on ice in 10 volumes of sucrose with an Ultra Turrax homogeniser (1000 rpm) for 2 minutes. The homogenate is centrifuged at 1000 gmea" for 10 minutes at 4° C and the supernatant collected and filtrated through 4 layers of gauze. The filtrate is then centrifuged at 50,000 gmean for 45 min at 4° C and the pellet resuspended in 10 volorg. wet weight ice-cold distilled water and incubated for 60 min at 0° C and re-centrifuged at 50,000 gmean at 45 min at 4° C. The resulting pellet is resuspended in 2 vol org. wet weight of PBS (Phosphate Buffered Saline) and stored at - 80° C until use.

Row | Molecule | CaCl2 mice Score [1] | CaCl2 mice In vivo, % [1] | other results
1 | H-GP[Hyp]GAG-OH [AAP, reference compound] | 2 |  | In vivo activity [1]: ++ (++ refers to 30-50% increase in time until arrhythmia); IC50 (CHO cells): 0.8 nM; EC50 [2]: 53 nM; IC50 [3]: 1.2 nM
2 | Cyclo(retro-AAP-10-Asn) | 2 | 59 +/- 9% | 
3 | CC(=O)N[C@@H](Cc1ccc(O)cc1)C(=O)N[C@H](CC(N)=O)C(=O)NCC(=O)O [Ac-Y-DN-G-OH] (Ac-Tyr-[dN]-Gly-OH) | 2 |  | 
4 | CNCC(=O)N[C@@H](C)C(=O)N(C)CC(=O)N1C[C@H](O)C[C@H]1C(=O)N1CCC[C@H]1C(=O)N[C@@H](Cc1ccc(O)cc1)C(N)=O [H-Sar-A-Sar-Hyp-PY-NH2] (H-[Sar]A[Sar][Hyp]PY-NH2) | 1 | 24 +/- 7% | 
5 | NC(=O)CNC(=O)[C@H](CC(N)=O)NC(=O)[C@@H](N)Cc1ccc(O)cc1 [H-YNG-NH2] (H-Tyr-Asn-Gly-NH2) | 2 |  | 
6 | H-[D-Hyp^4]AAP-10-NH2 | 1 | 28 +/- 10% | 
7 | GNY | 2 | 58 +/- 10% | 
8 | CC(=O)NCC(=O)N[C@@H](CC(=O)O)C(=O)N[C@@H](CC(N)=O)C(=O)N[C@@H](Cc1ccc(O)cc1)C(N)=O [Ac-G-D-N-Y-NH2] (Ac-GDNY-NH2) | 1 |  | 
9 | NCC(=O)N[C@@H](CCCCNc1ccc([N+](=O)[O-])cc1[N+](=O)[O-])C(=O)N[C@@H](Cc1ccc(O)cc1)C(N)=O [H-GK(DNP)Y-NH2] (H-Gly-Lys(Dnp)-Tyr-NH2) | 1 |  | 
10 | H-AAP-10-K6-OH | 3 | 64 +/- 10% | 
11 | C[C@H](NC(=O)CN)C(=O)NCC(=O)N1C[C@H](O)C[C@H]1C(=O)N1CCC[C@H]1C(=O)N[C@@H](Cc1ccc(O)cc1)C(=O)N[C@@H](CC(N)=O)C(N)=O [H-AAP-10-Asn-NH2] (H-GAG[Hyp]PYN-NH2) | 2 |  | 
12 | AcGNY | 2 | 46 +/- 9% | 
13 | NC(=O)C[C@@H](NC(=O)[C@@H](N)Cc1ccc(O)cc1)C(=O)NCC(=O)O [H-Y-DN-G-OH] (H-Tyr-[dN]-Gly-OH) | 2 |  | 
14 | CC(=O)N[C@@H](Cc1ccc(O)cc1)C(=O)N1CCC[C@H]1C(=O)N1C[C@H](O)C[C@H]1C(=O)NCC(=O)N[C@@H](C)C(=O)NCC(=O)O [Compound 1, Ac-Tyr-Pro-4Hyp-Gly-Ala-Gly-OH] (Ac-YP[Hyp]GAG-OH) | 1 |  | 
15 | C[C@H](NC(=O)CNC(=O)[C@@H]1C[C@@H](O)CN1C(=O)[C@@H]1CCCN1C(=O)c1cc(I)c(N=[N+]=[N-])cc1O)C(=O)NCC(N)=O [Compound 32] (X1-P[Hyp]GAG-NH2) |  |  | IC50 (CHO cells): 0.5 nM
16 | H-GAGGPY-NH2 [H-GAGGPY-NH2] | 2 |  | 
17 | C[C@H](NC(=O)CNC(=O)[C@H](CC(N)=O)NC(=O)[C@H](Cc1ccc(O)cc1)NC(=O)[C@@H]1CCCN1C(=O)[C@@H]1C[C@@H](O)CN1)C(=O)NCC(N)=O [H-HypPYNGAG-NH2] (H-[Hyp]PYNGAG-NH2) | 2 | 34 +/- 10% | 

Row | Molecule | CaCl2 mice Score [1] | CaCl2 mice In vivo, % [1] | other results
18 | NCC(=O)NCC(=O)N[C@@H](Cc1ccc(O)cc1)C(N)=O [H-GGY-NH2] (H-Gly-Gly-Tyr-NH2) | 2 |  | 
19 | HPP-PHypGAGKKKKKK-OH | 3 | 80 +/- 17% | 
20 | CC(=O)N[C@@H](Cc1ccc(O)cc1)C(=O)N[C@@H](CC(=O)O)C(=O)N[C@@H](CC(N)=O)C(=O)NCC(N)=O [Ac-Y-D-N-G-NH2] (Ac-YDNG-NH2) | 1 |  | 
21 | C[C@H](NC(=O)CN)C(=O)NCC(=O)N1CCC[C@@H]1C(=O)N[C@@H](C)C(=O)N[C@@H](Cc1ccc(O)cc1)C(N)=O [H-[D-Pro^4, Ala^5]AAP-10-NH2] (H-GAG[dP]AY-NH2) | 1 | 29 +/- 12% | 
22 | H-DY-DN-G-NH2 | 1 |  | 
23 | 3-(4-hyd roxyphenyl)propionyl-Pro-Hyp-Gly-Ala-Gly-OH [HP5, reference compound] | 2 |  | In vivo activity [1]: ++ (++ refers to 30-50% increase in time until arrhythmia)
24 | C[C@H](NC(=O)CN)C(=O)N[C@@H](CC(N)=O)C(=O)N[C@@H](Cc1ccc(O)cc1)C(N)=O [H-GANY-NH2] (H-GANY-NH2) | 1 |  | 
25 | NCC(=O)N[C@H](CC(N)=O)C(=O)N[C@@H](Cc1ccc(O)cc1)C(N)=O [H-G-DN-Y-NH2] (H-Gly-[dN]-Tyr-NH2) | 2 |  | 
26 | HPP-PHypGAGKKKKKK-NH2 | 1 | 21 +/- 17% | 
27 | H-GAG-DHyp-DProY-NH2 | 2 | 49 +/- 6% | 
28 | CF3C(O)-AAP10-NH2 | 3 |  | 
29 | des-Hyp^4-[Asn^5]AAP-10-NH2 | 2 | 53 +/- 15% | 
30 | C[C@H](NC(=O)CN)C(=O)N(C)CC(=O)N1C[C@H](O)C[C@H]1C(=O)N1CCC[C@H]1C(=O)N[C@@H](Cc1ccc(O)cc1)C(N)=O [H-GA-Sar-Hyp-PY-NH2] (H-GA[Sar][Hyp]PY-NH2) | 2 | 46 +/- 11% | 
31 | [Pro^4]AAP10-NH2 | 3 |  | 
32 | CC(=O)N[C@H](Cc1cc(I)c(O)c(I)c1)C(=O)N1CCC[C@@H]1C(=O)N1C[C@@H](O)C[C@@H]1C(=O)NCC(=O)N[C@H](C)C(=O)NCC(N)=O [Compound 24] (Ac-[dTyr(3,5-I2)][dP][dHyp]G[dA]G-NH2) |  |  | IC50 (CHO cells): 65 nM
33 | H-GAG-DHypAY-NH2 | 1 | 29 +/- 9% | 
